Measured values published in patent US5236918A, “6-aryl-3-cyanaminopyridazines, their preparation and use and medicaments containing them” (BYK Gulden Lomberg Chemische Fabrik GmbH, priority 1989, dated 1993).

Experiments:
[1] = tested on: tracheal ring chain of the guinea-pig; assay: bronchospasmolytic action on the tracheal ring chain of the guinea-pig in vitro (relaxation of stable tonic spontaneous contraction); format: cell-based; settings: for EC50: Cavia porcellus, EC50 in mol/l, 50% of the maximum relaxation achievable with (-)isoprenaline 10^-6 mol/l, spontaneous contraction, 37° C.; for [EC50]theophylline / [EC50]substance: quotient of EC50 values, theophylline = 1
Protocol: The bronchospasmolytic action of the compounds on the tracheal ring chain of the guinea-pig was tested in vitro as follows: Four parallel tracheal ring chains, each consisting of 6 individual rings, of the guinea-pig (female and male, 430-600 g), in an organ bath [5 ml, Krebs-Henseleit solution with addition of phentolamine (10^-5 mol/l), 37° C., pretension of the organs 2 g, gassing with carbogen] develop a stable, tonic spontaneous contraction after about 20 to 30 minutes. Relaxation can be brought about on these permanently contracted organs under isometric measurement conditions by application of the test substance in a cumulatively semi-logarithmically increasing concentration (e.g. 1×10^-6 +2×10^-6 +7×10^-6 +2×10^-5etc. mol/l), a constant relaxation response being awaited after each individual dose of the test substance before the next higher concentration is applied. A complete dose/effect curve of the test substance is thus obtained over a period of 20 to 30 minutes. The particular relaxation is expressed as the percentage fraction of the maximum relaxation which can be achieved by addition of (-)isoprenaline (10^-6 mol/l).

[2] = tested on: PDE IV; assay: inhibition of PDE IV from the canine trachea; format: biochemical; settings: for [IC50]theophylline / [IC50]substance: PDE IV canine trachea, quotient of IC50 values, theophylline = 1; for -log[IC50] PDE IV canine trachea: cAMP 0.5 μmol/l, 37° C., 20 minutes
Source text: (§1) The inhibition of phosphodiesterases of classes III (PDE III=high-affinity cAMP-PDE which can be inhibited by cGMP) and IV (PDE IV=high-affinity cAMP-PDE which cannot be inhibited by cGMP, Rolipram-sensitive) is regarded as being particularly conclusive for a bronchospasmolytic and/or antiinflammatory action which may be expected [H. Hidaka et al., Adv. Cycl. Nucl. Res. 13, 145 (1984); Tips 5, 237 (1984); R. Weishaar et al., J. Med. Chem. 28, 537 (1985); S. A. Harrison et al., Molec. Pharmac. 29, 506 (1986); J. Klein-Tebbe et al., Allergologie 12, 12 (1989); C. Schudt et al., Allergologie 12, 12 (1989)].
(§2) The PDE inhibition of the compounds according to the invention was therefore determined on a PDE III isolated from human platelets and PDE IV isolated from human neutrophilic polymorphonuclear cells (PMNs) and from the canine trachea. The phosphodiesterases III and IV are isolated by chromatography by the method of Polson et al., Biochem. Pharmacol. 31, 3403-3406 (1982).
(§3) The substances are dissolved in DMSO and diluted further. From a series of solutions diluted up to a hundred-fold, 2.1 μl portions are taken and 212 μl reaction mixture are added. The reaction mixture contains Hepes (100 mmol/l), DTE (5 mmol/l), MgCl2 (5 mmol/l), CaCl2 (10 μmol/l), BSA fraction V 0.5 mg/ml, cAMP 0.5 μmol/l, 2,8-^3 H-cAMP 250,000 cpm/ml (0.3 μCi/ml, s.a. 33.5 μCi/mmol) and SV (snake venom) (25 μg/212 μl test batch).
(§4) The reaction is started by addition of 10 μl PDE to the reaction mixture and to the substance batch. The mixtures are then incubated at 37° C. for 20 minutes. The reaction is stopped by heating at 95° C. for 45 seconds. After the samples have cooled, the SV solution is added, the 5-AMP formed being cleaved. After incubation for 30 minutes at 37° C., this reaction is stopped by addition of 1 ml anion exchanger suspension. The cAMP which remains is thereby bonded. The adenosine formed remains in the supernatant after centrifugation and can be measured in an aliquot by the radioactivity contained therein.

[3] = biological target: T1, PDE III (Homo sapiens, UniProt Q14432); assay: inhibition of PDE III isolated from human platelets; format: biochemical; settings: for [IC50]theophylline / [IC50]substance: PDE III, quotient of IC50 values, theophylline = 1; for IC50: human platelets, cAMP 0.5 μmol/l, 37° C., 20 minutes, read-out: -log[IC50] PDE III (converted)
T1 construct: PDE III isolated from human platelets; from tissue; host or cells: human platelets
Source text: as §1, §2, §3, §4

[4] = tested on: PDE IV; assay: inhibition of PDE IV from human neutrophilic polymorphonuclear cells (PMNs); format: biochemical; settings: for [IC50]theophylline / [IC50]substance: PDE IV human PMNs, quotient of IC50 values, theophylline = 1; for -log[IC50] PDE IV PNMs: human neutrophilic polymorphonuclear cells, cAMP 0.5 μmol/l, 37° C., 20 minutes
Source text: as §1, §2, §3, §4

[5] = tested on: acetylcholine-induced bronchospasm; assay: protective action against acetylcholine-induced bronchospasm on the conscious guinea-pig; format: in vivo; settings: Cavia porcellus, 0.5 h; verum, oral, 100 μmol/kg, 30 minutes after administration; protected = latency period at least three times; read-out: Number of animals protected/number of animals used (converted)
Protocol: The bronchospasmolytic action was additionally tested on the model of "Protective action against acetylcholine-induced bronchospasm on the conscious guinea-pig":
Guinea-pigs (250-350 g) are exposed in a closed Plexiglas cylinder (volume 5 l) to an acetylcholine mist (0.06% in 0.9% sodium chloride solution; ultrasonic mister Heyer Use 77) twice before administration of the substance at an interval of 20 minutes, and 30 minutes after administration of the substance. The time from the start of misting to the onset of clear respiratory exertion (under certain circumstances hypoxic convulsions in the lateral position) is measured and defined as the latency period. A prolonging of the latency period after administration of the substance to at least three times the average latency period before administration of the substance is regarded as a protective action, and the number of protected animals in the group is stated. The test substances are administered orally by means of a stomach tube (dose 100 μmol/kg, volume 1 ml/kg, suspending agent 4% Methocel suspension in 0.9% sodium chloride solution).
The test substance is administered perorally by means of a stomach tube (standard dose 100 μmol, volume 1 ml 4% Methocel suspension in 0.9% sodium chloride solution/kg). After 30 minutes, the animals are exposed to the acetylcholine mist again and the latency periods are measured. Prolonging of the latency period to at least three times the length is regarded as a protective action.

T1 sequence (Q14432 whole entry): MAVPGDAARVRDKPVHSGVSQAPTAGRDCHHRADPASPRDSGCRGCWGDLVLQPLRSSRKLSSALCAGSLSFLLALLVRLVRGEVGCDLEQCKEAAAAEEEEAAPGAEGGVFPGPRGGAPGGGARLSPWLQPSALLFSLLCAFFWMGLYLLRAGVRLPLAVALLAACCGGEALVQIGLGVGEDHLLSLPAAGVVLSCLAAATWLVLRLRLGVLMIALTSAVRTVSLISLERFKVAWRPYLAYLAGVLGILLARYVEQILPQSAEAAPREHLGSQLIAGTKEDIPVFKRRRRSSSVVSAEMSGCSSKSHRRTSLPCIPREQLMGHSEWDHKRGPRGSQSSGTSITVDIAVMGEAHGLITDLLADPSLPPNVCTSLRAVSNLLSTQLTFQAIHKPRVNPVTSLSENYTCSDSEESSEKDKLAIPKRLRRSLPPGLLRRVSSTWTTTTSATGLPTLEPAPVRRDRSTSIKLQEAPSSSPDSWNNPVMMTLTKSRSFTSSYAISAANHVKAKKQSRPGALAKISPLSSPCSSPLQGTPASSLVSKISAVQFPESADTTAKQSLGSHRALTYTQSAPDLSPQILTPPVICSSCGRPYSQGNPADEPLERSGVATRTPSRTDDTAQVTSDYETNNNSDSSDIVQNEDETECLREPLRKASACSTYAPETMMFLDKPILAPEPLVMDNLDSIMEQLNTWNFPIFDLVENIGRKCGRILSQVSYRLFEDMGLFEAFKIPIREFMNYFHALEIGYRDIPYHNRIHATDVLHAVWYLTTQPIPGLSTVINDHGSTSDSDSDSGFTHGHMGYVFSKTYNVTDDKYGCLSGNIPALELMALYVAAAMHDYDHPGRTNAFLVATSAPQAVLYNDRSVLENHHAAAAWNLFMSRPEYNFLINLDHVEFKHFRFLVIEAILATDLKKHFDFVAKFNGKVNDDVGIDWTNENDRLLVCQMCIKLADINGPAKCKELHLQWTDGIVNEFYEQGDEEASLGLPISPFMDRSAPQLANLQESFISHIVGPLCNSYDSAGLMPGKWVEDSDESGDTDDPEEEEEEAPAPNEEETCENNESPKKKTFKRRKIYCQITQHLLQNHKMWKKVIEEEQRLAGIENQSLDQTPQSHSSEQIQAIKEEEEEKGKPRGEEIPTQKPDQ

| SMILES | EC50 [1] | [EC50]theophylline / [EC50]substance [1] | [IC50]theophylline / [IC50]substance [2] | -log[IC50] PDE IV canine trachea [2] | [IC50]theophylline / [IC50]substance [3] | IC50 [3] | [IC50]theophylline / [IC50]substance [4] | -log[IC50] PDE IV PNMs [4] | responders at 100 µmol/kg [5] |
| --- | --- | --- | --- | --- | --- | --- | --- | --- | --- |
| CCCOc1ccc(-c2ccc(NC#N)nn2)cc1OC [Compound 1, 3-Cyanamino-6-(3-methoxy-4-n-propoxyphenyl)pyridazine] | 5.62 µM | 24.0 |  |  |  |  |  |  |  |
| CCOc1cc(-c2ccc(NC#N)nn2)ccc1OC [Compound 2, 3-Cyanamino-6-(3-ethoxy-4-methoxyphenyl)pyridazine] | 3.02 µM | 44.7 | 95.6 | 5.79 | 15.5 | 10.5 µM |  |  |  |
| COc1cc(-c2ccc(NC#N)nn2)ccc1OCC(C)C [Compound 5, 3-Cyanamino-6-[3-methoxy-4-(2-methylpropoxy)phenyl]pyridazine] | 3.55 µM | 38.1 |  |  |  |  |  |  |  |
| COc1cc(-c2ccc(NC#N)nn2)ccc1OC(C)C [Compound 6, 3-Cyanamino-6-[3-methoxy-4-(1-methylethoxy)phenyl]pyridazine] | 8.13 µM | 16.6 |  |  | 25.7 | 6.31 µM |  |  |  |
| CCOc1ccc(-c2ccc(NC#N)nn2)cc1OC [Compound 7, 3-Cyanamino-6-(4-ethoxy-3-methoxyphenyl)pyridazine] | 6.46 µM | 20.9 | 32.4 | 5.32 | 18.2 | 8.91 µM |  |  |  |
| COc1cc(-c2ccc(NC#N)nn2)ccc1OC(F)F [Compound 8, 3-Cyanamino-6-(4-difluoromethoxy-3-methoxyphenyl)pyridazine] | 1.86 µM | 72.5 | 70.8 | 5.66 |  |  |  |  |  |
| COc1ccc(-c2ccc(NC#N)nn2)cc1OC(F)F [Compound 9, 3-Cyanamino-6-(3-difluoromethoxy-4-methoxyphenyl)pyridazine] | 2.34 µM | 57.6 | 69.2 | 5.65 | 13.2 | 12.3 µM |  |  |  |
| COc1ccc(-c2ccc(NC#N)nn2)cc1OC [Compound 10, 3-Cyanamino-6-(3,4-dimethoxyphenyl)pyridazine] | 7.08 µM | 19.1 | 74.1 | 5.68 | 15.1 | 10.7 µM |  |  |  |
| COc1ccc(-c2ccc(NC#N)nn2)cc1OC1CCCC1 [Compound 11, 3-Cyanamino-6-(3-cyclopentyloxy-4-methoxyphenyl)pyridazine] | 0.562 µM | 240 | 120 | 5.89 |  |  | 288 | 6.22 |  |
| CCOc1ccc(-c2ccc(NC#N)nn2)cc1OC(F)F [Compound 14, 3-Cyanamino-6-(3-difluoromethoxy-4-ethoxyphenyl)pyridazine] | 2.04 µM | 66.1 |  |  |  |  | 85.1 | 5.69 |  |
| COc1ccc(-c2ccc(NC#N)nn2)cc1OCC1CCC1 [Compound 15, 3-Cyanamino-6-(3-cyclobutylmethoxy-4-methoxyphenyl)pyridazine] | 0.912 µM | 148 | 77.7 | 5.70 |  |  |  |  |  |
| CC(C)Oc1cc(-c2ccc(NC#N)nn2)ccc1OC(F)F [Compound 16, 3-Cyanamino-6-[4-difluoromethoxy-3-(1-methylethoxy)phenyl]pyridazine] | 0.661 µM | 204 |  |  |  |  | 550 | 6.50 | 50% |
| N#CNc1ccc(-c2ccc(OC(F)F)c(OC3CCCC3)c2)nn1 [Compound 17, 3-Cyanamino-6-(3-cyclopentyloxy-4-difluoromethoxyphenyl)pyridazine] | 0.759 µM | 178 |  |  |  |  | 513 | 6.47 |  |
| N#CNc1ccc(-c2ccc(OC(F)F)c(OCC3CC3)c2)nn1 [Compound 18, 3-Cyanamino-6-(3-cyclopropylmethoxy-4-difluoromethoxyphenyl)pyridazine] | 0.562 µM | 240 |  |  |  |  | 759 | 6.64 | 50% |
| CC(C)COc1cc(-c2ccc(NC#N)nn2)ccc1OC(F)F [Compound 19, 3-Cyanamino-6-[4-difluoromethoxy-3-(2-methylpropoxy)phenyl]pyridazine] | 1.41 µM | 95.6 |  |  |  |  | 525 | 6.48 |  |
| N#CNc1ccc(-c2ccc(OCC3CC3)c(OC(F)F)c2)nn1 [Compound 21, 3-Cyanamino-6-(4-cyclopropylmethoxy-3-difluoromethoxyphenyl)pyridazine] | 1 µM | 135 |  |  |  |  |  |  |  |
